Reference: patent publication US10261090B2, “Glutathione-detecting fluorescent probe” (THE UNIVERSITY OF TOKYO, priority 2014, dated 2019)
Read-outs that look alike come from different tables or passages of the source.

Tests used:
[1] = Fluorescence assay for glutathione: Kd from absorption/fluorescence change on glutathione addition; assay type: binding
Procedure: (§1) Glutathione was reacted with the fluorescent probe 2Me SiR600 (compound 1) synthesized in Example 1, and fluorescence assay was conducted. A Shimadzu UV-2450 (Shimadzu Corporation) and a Hitachi F-7000 (Hitachi, Ltd.) were used in ultraviolet-visible spectroscopy and fluorescence spectroscopy. A fluorescent probe was diluted to a final concentration of 1 μM in 0.2 M sodium phosphate buffer (pH 7.4), containing 0.1-1% DMSO. The absorption spectrum and fluorescence spectrum were measured when various concentration of glutathione was added in the range of 1 μM-100 mM. The excitation wavelength was 590 nm.

[2] = Ultraviolet-visible and fluorescence spectroscopy of the probes; assay type: physicochemical; conditions: for Quantum yield: 0.2 M sodium phosphate buffer pH 7.4
Procedure: as §1

[3] = test system: intracellular glutathione in cultured cancer cells; test: Cell imaging in cultured cancer cells by confocal microscope; assay type: cell-based; conditions: for change in fluorescence intensity ratio in cells: NEM addition, FIGS. 8 and 9
Procedure: Next, cell imaging in cultured cancer cells was conducted using compound 1 (2Me SiR600) as a fluorescent probe. Measurement was conducted using a confocal microscope.
Fluorescence imaging in cultured cancer cells was conducted in the same way as in Example 4 using compound 8 (2Me SiR600-TMR) as the fluorescent probe (FIG. 8).

[4] = Table 1, dissociation constant for glutathione, calculated from changes in the fluorescence spectrum, pH 7.4, read-out: Kd
[5] = Table 1, 1 μM probe, 0.2 M sodium phosphate buffer pH 7.4, 0.1-1% DMSO
[6] = Table 2, dissociation constant for glutathione, same conditions as Example 2, read-out: Kd
[7] = Table 2, same conditions as Example 2

Cc1ccccc1C1=C2C=CC(=N)C=C2[Si](C)(C)c2cc(N)ccc21 [Compound 1, 2Me SiR600]
Kd [1, 4]: 1100 µM | Kd ([1]; from values at absorption peak wavelength (593 nm) against glutathione concentration, read-out: dissociation constant Kd): 1000 µM | Kd ([1]; from values at fluorescence peak wavelength (614 nm) against glutathione concentration, excitation 590 nm, read-out: dissociation constant Kd): 1100 µM | Absorption peak [nm] [2, 5]: 593 nm | Fluorescence peak [nm] [2, 5]: 613 nm | Quantum yield ([2]; Table 1): 0.38 | change in fluorescence intensity in cells ([3]; glutathione depletion due to N-ethylmaleimide (NEM) addition, FIG. 4): an increase in fluorescence intensity was found

CN(C)c1ccc2c(c1)[Si](C)(C)C1=CC(=[N+](C)C)C=CC1=C2c1ccccc1 [Compound 2, Ph SiR650]
Kd [1, 4]: 900 µM | Absorption peak [nm] [2, 5]: 645 nm | Fluorescence peak [nm] [2, 5]: 668 nm | Quantum yield ([2]; Table 1): 0.14

COc1ccccc1C1=C2C=CC(=[N+](C)C)C=C2[Si](C)(C)c2cc(N(C)C)ccc21 [Compound 3, 2OMe SiR650]
Kd [1, 4]: 41000 µM | Absorption peak [nm] [2, 5]: 649 nm | Fluorescence peak [nm] [2, 5]: 672 nm | Quantum yield ([2]; Table 1): 0.37

CN(C)c1ccc2c(c1)[Si](C)(C)C1=CC(=[N+](C)C)C=CC1=C2c1ccccc1O [Compound 4, 2OH SiR650]
Kd [1, 4]: 43000 µM | Absorption peak [nm] [2, 5]: 648 nm | Fluorescence peak [nm] [2, 5]: 672 nm | Quantum yield ([2]; Table 1): 0.31

CN(C)c1ccc2c(c1)[Si](C)(C)C1=CC(=[N+](C)C)C=CC1=C2c1ccccc1C#N [Compound 5, 2CN SiR650]
Kd [1, 4]: 1200 µM | Absorption peak [nm] [2, 5]: 658 nm | Fluorescence peak [nm] [2, 5]: 683 nm | Quantum yield ([2]; Table 1): 0.25

COc1ccccc1C1=c2cc3c(cc2[Si](C)(C)c2cc4c(cc21)OCCN4C)=[N+](C)CCO3 [Compound 6, 2OMe OxaSiR diMe]
Kd [1, 4]: 700 µM | Absorption peak [nm] [2, 5]: 699 nm | Fluorescence peak [nm] [2, 5]: 740 nm | Quantum yield ([2]; Table 1): 0.08

CN1CCOc2cc3c(cc21)[Si](C)(C)c1cc2c(cc1=C3c1ccccc1O)OCC[N+]=2C [Compound 7, 2OH OxaSiR diMe]
Kd [1, 4]: 900 µM | Absorption peak [nm] [2, 5]: 699 nm | Fluorescence peak [nm] [2, 5]: 739 nm | Quantum yield ([2]; Table 1): 0.07

Cc1cc(C(=O)NC2CCC(NC(=O)c3ccc(-c4c5ccc(=[N+](C)C)cc-5oc5cc(N(C)C)ccc45)c(C(=O)[O-])c3)CC2)ccc1C1=C2C=CC(=N)C=C2[Si](C)(C)c2cc(N)ccc21 (stereo not drawn) [Compound 8, 2Me SiR600-TMR]
change in fluorescence intensity ratio in cells [3]: change in fluorescence intensity ratio observed

COC(=O)c1cc(C(=O)NC2CCC(NC(=O)c3ccc(C4=C5C=CC(=N)C=C5[Si](C)(C)c5cc(N)ccc54)c(C)c3)CC2)ccc1-c1c2ccc(=[N+](C)C)cc-2oc2cc(N(C)C)ccc12 (stereo not drawn) [Compound 9, 2Me SiR600-TMR(Me)]
change in fluorescence intensity ratio in cells [3]: change in fluorescence intensity ratio due to NEM addition was also observed

CCc1ccccc1C1=C2C=CC(=N)C=C2[Si](C)(C)c2cc(N)ccc21.O=C(O)C(F)(F)F [Compound 11]
Kd [1, 6]: 2300 µM | Absorption peak [nm] [2, 7]: 592 nm | Fluorescence peak [nm] [2, 7]: 614 nm | Fluorescence quantum yield [2, 7]: 0.44

CN=C1C=CC2=C(c3ccccc3OC)c3ccc(NC)cc3[Si](C)(C)C2=C1.O=C(O)C(F)(F)F [Compound 16]
Kd [1, 6]: 16000 µM | Absorption peak [nm] [2, 7]: 620 nm | Fluorescence peak [nm] [2, 7]: 643 nm | Fluorescence quantum yield [2, 7]: 0.34

CN=C1C=CC2=C(c3ccccc3O)c3ccc(NC)cc3[Si](C)(C)C2=C1.O=C(O)C(F)(F)F [Compound 17]
Kd [1, 6]: 21000 µM | Absorption peak [nm] [2, 7]: 620 nm | Fluorescence peak [nm] [2, 7]: 643 nm | Fluorescence quantum yield [2, 7]: 0.22

CN(C)c1ccc2c(c1)[Si](C)(C)C1=CC(=[N+](C)C)C=CC1=C2c1ccccc1F [Compound 18]
Kd [1, 6]: 1300 µM | Absorption peak [nm] [2, 7]: 655 nm | Fluorescence peak [nm] [2, 7]: 677 nm | Fluorescence quantum yield [2, 7]: 0.19

CN(C)c1ccc2c(c1)[Si](C)(C)C1=CC(=[N+](C)C)C=CC1=C2c1cccc(C(F)(F)F)c1 [Compound 21]
Kd [1, 6]: 600 µM | Absorption peak [nm] [2, 7]: 650 nm | Fluorescence peak [nm] [2, 7]: 673 nm | Fluorescence quantum yield [2, 7]: 0.20

CN(C)c1ccc2c(c1)[Si](C)(C)C1=CC(=[N+](C)C)C=CC1=C2c1ccc(C(F)(F)F)cc1 [Compound 22]
Kd [1, 6]: 500 µM | Absorption peak [nm] [2, 7]: 650 nm | Fluorescence peak [nm] [2, 7]: 673 nm | Fluorescence quantum yield [2, 7]: 0.16

CN(C)c1ccc2c(c1)[Si](C)(C)C1=CC(=[N+](C)C)C=CC1=C2c1ccccc1Cl [Compound 23]
Kd [1, 6]: 27000 µM | Absorption peak [nm] [2, 7]: 655 nm | Fluorescence peak [nm] [2, 7]: 676 nm | Fluorescence quantum yield [2, 7]: 0.30

Cc1ccccc1C1=C2C=CC(=[N+](C)C)C=C2[Si](C)(C)c2cc(N)ccc21 [Compound 26]
Kd [1, 6]: 15000 µM | Absorption peak [nm] [2, 7]: 620 nm | Fluorescence peak [nm] [2, 7]: 643 nm | Fluorescence quantum yield [2, 7]: 0.14

Cc1ccccc1C1=c2cc3c(cc2[Si](C)(C)c2cc4c(cc21)OCCN4C)=[N+](C)CCO3 [Compound 27]
Kd [1, 6]: 2100 µM | Absorption peak [nm] [2, 7]: 695 nm | Fluorescence peak [nm] [2, 7]: 738 nm | Fluorescence quantum yield [2, 7]: 0.06
